From patent US20250092051A1, “NLRP3 MODULATORS AND USE THEREOF” (Bioentropy Inc., priority 2023, published 2025)

How the values were obtained:
NLRP3 [1] = biological target: T1, NLRP3 (Homo sapiens, UniProt Q96P20); assay: THP-1 pyroptosis assay (caspase-1 p20 in supernatant by Western blot); format: cell-based; details: PMA-differentiated THP-1, LPS 50 ng/ml 4 h, compound 30 min, nigericin 15 μM 45 min; caspase-1 p20 Western blot
T1 construct: host or cells: THP-1 cells, PMA-differentiated, LPS-primed, nigericin-stimulated
Description: (§1) THP-1 cell lines (procell, #CL-0233) were cultured in RPMI-1640 medium (Gibco, #C11875500BT) supplemented with 10% FBS, 100 U/ml penicillin, 100 µg/ml streptomycin and 0.05 mM β-mercaptoethanol (BME). THP-1 cells were seeded at 5×10^5/ml in 12 well plates and were differentiated into macrophages by incubation with 5 ng/ml PMA (Sigma, #P8139-1MG) for 48 h. Cells were washed with PBS and then were primed with 50 ng/ml LPS (InvivoGen, #tlrl-b5lps) for 4 h. Medium were removed and replaced with serum free medium (SFM) containing compound (2.5-40 nM) or MCC950 (5-25 nM) for 30 min. Cells were then stimulated with 15 μM nigericin (Invivogen, #tlrl-nig) for 45 min.
The protein of supernatants was concentrated using StrataClean™ resin (Agilent, #400714) according to the manufacturer's instructions. The protein samples were resolved on 4-20% SDS-PAGE gels and transferred onto 0.45 PVDF membrane (Immobilon-P #IPVH00010) using a wet transfer system. Membranes were blocked in 5% (w/v) dried milk in PBST for 1 h at room temperature. Membranes were incubated with primary antibody (Adipogen, #AG-20B-0048B-C100) diluted in Primary Antibody Dilution Buffer (Beyotime, #P0023A-100 ml) according to the manufacturer's instructions, followed by incubation with the IgG(H+L) (HRP-labeled Goat Anti-Mouse IgG(H+L) (Beyotime, #A0216) diluted in 1% (w/v) dried milk in PBST for 1 h. The protein expression was visualized using Super ECL Detection Reagent (YEASEN,
FIG. 1. Results of Western blots for THP-1 cell-based pyroptosis assay using the cleavage of caspase-1 into p20 as reporting indication of NLRP3 inhibition. […] Molecule N-027 (Compound #51) and N-027B (Compound #53) inhibits NLRP3 inflammasome activation in macrophages, N-027 IC50 (caspase-1)<5 nM; N-027B IC50 (caspase-1) 1 nM. THP-1 cells were primed for 4 h with LPS (50 ng/ml), and then LPS-primed THP-1 cells were incubated with N-027 or N-027B for 30 min and then stimulated with nigericin (15 μM) for 45 min. Caspase-1 (p20) in supernatants were measured by Western blots.

NLRP3 [2] = biological target: T1, NLRP3; assay: IL-1β assay (ELISA of THP-1 culture supernatant); format: cell-based; details: PMA-differentiated THP-1, LPS 50 ng/ml 4 h, compound 30 min, nigericin 15 μM 45 min; Human IL-1β ELISA
Description: as §1
The culture supernatant of THP-1 was removed and analyzed using Human IL-1β ELISA Kit according to the manufacturer's instructions (Beyotime, #PI305). The IL-1β concentration was measured at 450 nm wavelength of absorbance and calculated.

T1 sequence (Q96P20 whole entry): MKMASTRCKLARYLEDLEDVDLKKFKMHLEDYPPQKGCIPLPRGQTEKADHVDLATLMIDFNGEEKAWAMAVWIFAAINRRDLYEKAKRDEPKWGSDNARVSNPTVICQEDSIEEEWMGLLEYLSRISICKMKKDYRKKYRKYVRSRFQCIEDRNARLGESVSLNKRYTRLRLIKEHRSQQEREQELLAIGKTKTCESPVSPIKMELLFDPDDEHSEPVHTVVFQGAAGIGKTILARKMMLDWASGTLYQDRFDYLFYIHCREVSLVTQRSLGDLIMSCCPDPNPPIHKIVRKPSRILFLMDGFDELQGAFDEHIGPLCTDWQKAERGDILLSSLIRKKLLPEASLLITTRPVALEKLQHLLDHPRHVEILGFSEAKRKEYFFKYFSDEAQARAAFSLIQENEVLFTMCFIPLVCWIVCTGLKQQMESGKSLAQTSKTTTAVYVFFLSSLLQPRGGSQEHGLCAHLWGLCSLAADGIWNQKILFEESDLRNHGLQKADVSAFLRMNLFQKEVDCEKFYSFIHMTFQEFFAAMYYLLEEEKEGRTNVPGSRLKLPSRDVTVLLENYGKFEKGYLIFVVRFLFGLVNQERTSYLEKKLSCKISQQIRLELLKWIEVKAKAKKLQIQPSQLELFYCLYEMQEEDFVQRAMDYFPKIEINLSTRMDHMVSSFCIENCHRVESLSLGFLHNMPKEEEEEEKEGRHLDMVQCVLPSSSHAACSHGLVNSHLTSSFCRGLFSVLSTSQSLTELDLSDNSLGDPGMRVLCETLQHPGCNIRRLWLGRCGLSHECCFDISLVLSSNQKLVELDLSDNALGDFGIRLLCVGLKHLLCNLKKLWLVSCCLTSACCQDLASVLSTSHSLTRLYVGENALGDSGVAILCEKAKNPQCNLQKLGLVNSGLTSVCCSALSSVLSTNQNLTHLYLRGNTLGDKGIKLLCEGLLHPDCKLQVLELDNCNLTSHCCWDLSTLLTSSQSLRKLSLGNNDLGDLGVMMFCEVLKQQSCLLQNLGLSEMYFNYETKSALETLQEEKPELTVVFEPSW

SMILES	IC50 (NLRP3 [1]) [nM]	IC50 (NLRP3 [2]) [nM]
Cc1cc(Br)cc(C)c1-n1nc2nc(N3CCOCC3)[nH]c(=O)c2n1 [Compound 1, 2-(4-bromo-2,6-dimethylphenyl)-5-morpholino-2,6-dihydro-7H-[1,2,3]triazolo[4,5-d]pyrimidin-7-one]	< 2.5	< 20
Cc1cc(C2CC2)cc(C)c1-n1nc2nc(N3CCOCC3)[nH]c(=O)c2n1 [Compound 3, 2-(4-cyclopropyl-2,6-dimethylphenyl)-5-morpholino-2,6-dihydro-7H-[1,2,3]triazolo[4,5-d]pyrimidin-7-one]	< 5	< 15
Cc1cc(C2CC2)cc(C)c1-n1nc2nc(N3CCOCC3)[nH]c(=S)c2n1 [Compound 4, 2-(4-cyclopropyl-2,6-dimethylphenyl)-5-morpholino-2,6-dihydro-7H-[1,2,3]triazolo[4,5-d]pyrimidine-7-thione]	> 1000	> 1000
Cc1cc(Br)cc(C)c1-n1nc2nc(N3CCCC3)[nH]c(=S)c2n1 [Compound 52, 2-(4-bromo-2,6-dimethylphenyl)-5-(pyrrolidin-1-yl)-2,6-dihydro-7H-[1,2,3]triazolo[4,5-d]pyrimidine-7-thione]	< 50	< 500
O=c1[nH]c(N2CCCC2)nc2nn(-c3ccc(Br)cc3C(F)(F)F)nc12 [Compound 75, 2-(4-bromo-2-(trifluoromethyl)phenyl)-5-(pyrrolidin-1-yl)-2,6-dihydro-7H-[1,2,3]triazolo[4,5-d]pyrimidin-7-one]	2.5	< 10
O=c1[nH]c(N2CCCC2)nc2nn(-c3c(Cl)cc(Br)cc3Cl)nc12 [Compound 91, 2-(4-bromo-2,6-dichlorophenyl)-5-(pyrrolidin-1-yl)-2,6-dihydro-7H-[1,2,3]triazolo[4,5-d]pyrimidin-7-one]	7.5	< 15
O=c1[nH]c(N2CCCC2)nc2nn(-c3c(F)cc(Br)cc3Cl)nc12 [Compound 98, 2-(4-bromo-2-chloro-6-fluorophenyl)-5-(pyrrolidin-1-yl)-2,6-dihydro-7H-[1,2,3]triazolo[4,5-d]pyrimidin-7-one]	7.5	< 15
O=c1[nH]c(N2CCCC2)nc2nn(-c3c(F)cc(Br)cc3F)nc12 [Compound 99, 2-(4-bromo-2,6-difluorophenyl)-5-(pyrrolidin-1-yl)-2,6-dihydro-7H-[1,2,3]triazolo[4,5-d]pyrimidin-7-one]	< 10	< 20
CCN1CCN(c2nc3nn(-c4ccc(C5CC5)cc4C(F)(F)F)nc3c(=O)[nH]2)CC1 [Compound 100, 2-(4-cyclopropyl-2-(trifluoromethyl)phenyl)-5-(4-ethylpiperazin-1-yl)-2,6-dihydro-7H-[1,2,3]triazolo[4,5-d]pyrimidin-7-one]	< 100	< 200
Cc1cc(C2CC2)cc(C)c1-n1nc2nc(N(C)CCN(C)C)[nH]c(=O)c2n1 [Compound 101, 2-(4-cyclopropyl-2,6-dimethylphenyl)-5-((2-(dimethylamino)ethyl)(methyl)amino)-2,6-dihydro-7H-[1,2,3]triazolo[4,5-d]pyrimidin-7-one]	< 10	< 100
CCN1CCN(c2nc3nn(-c4c(C)cc(C5CC5)cc4C)nc3c(=O)[nH]2)CC1 [Compound 102, 2-(4-cyclopropyl-2,6-dimethylphenyl)-5-(4-ethylpiperazin-1-yl)-2,6-dihydro-7H-[1,2,3]triazolo[4,5-d]pyrimidin-7-one]	< 40	> 100
O=c1[nH]c(N2CCOCC2)nc2nn(-c3c(F)cc(C4CC4)cc3Cl)nc12 [Compound 103, 2-(2-chloro-4-cyclopropyl-6-fluorophenyl)-5-morpholino-2,6-dihydro-7H-[1,2,3]triazolo[4,5-d]pyrimidin-7-one]	< 10	< 10
Cc1cc(C2CC2)cc(F)c1-n1nc2nc(N3CCOCC3)[nH]c(=O)c2n1 [Compound 104, 2-(4-cyclopropyl-2-fluoro-6-methylphenyl)-5-morpholino-2,6-dihydro-7H-[1,2,3]triazolo[4,5-d]pyrimidin-7-one]	< 6	< 10
Cc1cc(C2CC2)cc(C)c1-n1nc2nc(N3CCOC[C@H]3C)[nH]c(=O)c2n1 [Compound 107, (R)-2-(4-cyclopropyl-2,6-dimethylphenyl)-5-(3-methylmorpholino)-2H-[1,2,3]triazolo[4,5-d]pyrimidin-7(6H)-one]		< 33
COc1nc(N2CCOCC2)nc2nn(-c3c(C)cc(C4CC4)cc3C)nc12 [Compound 109, 4-[2-(4-cyclopropyl-2,6-dimethyl-phenyl)-7-methoxy-triazolo[4,5-d]pyrimidin-5-yl]morpholine]		> 10000

Other lines, results leading:

IC50 (NLRP3 [1]) [nM]	IC50 (NLRP3 [2]) [nM]	SMILES
< 1600	< 1600	Cc1cc(Br)cc(C)c1-n1nc2nc(N3CCOCC3)[nH]c(=S)c2n1 [Compound 2, 2-(4-bromo-2,6-dimethylphenyl)-5-morpholino-2,6-dihydro-7H-[1,2,3]triazolo[4,5-d]pyrimidine-7-thione]
< 5	< 5	Cc1cc(Br)cc(C)c1-n1nc2nc(N3CCCC3)[nH]c(=O)c2n1 [Compound 51, 2-(4-bromo-2,6-dimethylphenyl)-5-(pyrrolidin-1-yl)-2,6-dihydro-7H-[1,2,3]triazolo[4,5-d]pyrimidin-7-one]
≤ 1	< 5	Cc1cc(C2CC2)cc(C)c1-n1nc2nc(N3CCCC3)[nH]c(=O)c2n1 [Compound 53, 2-(4-cyclopropyl-2,6-dimethylphenyl)-5-(pyrrolidin-1-yl)-2,6-dihydro-7H-[1,2,3]triazolo[4,5-d]pyrimidin-7-one]
< 100	< 100	Cc1cc(C2CC2)cc(C)c1-n1nc2nc(N3CCCC3)[nH]c(=S)c2n1 [Compound 54, 2-(4-cyclopropyl-2,6-dimethylphenyl)-5-(pyrrolidin-1-yl)-2,6-dihydro-7H-[1,2,3]triazolo[4,5-d]pyrimidine-7-thione]
10		Cc1cc(Cl)cc(C)c1-n1nc2nc(N3CCCC3)[nH]c(=O)c2n1 [Compound 63, 2-(4-chloro-2,6-dimethylphenyl)-5-(pyrrolidin-1-yl)-2,6-dihydro-7H-[1,2,3]triazolo[4,5-d]pyrimidin-7-one]
< 10	< 10	O=c1[nH]c(N2CCCC2)nc2nn(-c3ccc(C4CC4)cc3C(F)(F)F)nc12 [Compound 77, 2-(4-cyclopropyl-2-(trifluoromethyl)phenyl)-5-(pyrrolidin-1-yl)-2,6-dihydro-7H-[1,2,3]triazolo[4,5-d]pyrimidin-7-one]
< 6.2	< 6.2	CCN(CC)c1nc2nn(-c3c(C)cc(Br)cc3C)nc2c(=O)[nH]1 [Compound 95, 2-(4-bromo-2,6-dimethylphenyl)-5-(diethylamino)-2,6-dihydro-7H-[1,2,3]triazolo[4,5-d]pyrimidin-7-one]
5	< 20	O=c1[nH]c(N2CCCC2)nc2nn(-c3ccc(Br)cc3Cl)nc12 [Compound 97, 2-(4-bromo-2-chlorophenyl)-5-(pyrrolidin-1-yl)-2,6-dihydro-7H-[1,2,3]triazolo[4,5-d]pyrimidin-7-one]
< 6	< 10	O=c1[nH]c(N2CCOCC2)nc2nn(-c3c(F)cc(C4CC4)cc3C(F)(F)F)nc12 [Compound 105, 2-(4-cyclopropyl-2-fluoro-6-(trifluoromethyl)phenyl)-5-morpholino-2,6-dihydro-7H-[1,2,3]triazolo[4,5-d]pyrimidin-7-one]
> 100	> 100	CCN1CCN(c2nc3nn(-c4c(C)cc(C5CC5)cc4F)nc3c(=O)[nH]2)CC1 [Compound 106, 2-(4-cyclopropyl-2-fluoro-6-methylphenyl)-5-(4-ethylpiperazin-1-yl)-2,6-dihydro-7H-[1,2,3]triazolo[4,5-d]pyrimidin-7-one]
	< 500	Cc1cc(C2CC2)cc(C)c1-n1nc2nc(N3CCOCC3)n(C)c(=O)c2n1 [Compound 108, 2-(4-cyclopropyl-2,6-dimethyl-phenyl)-6-methyl-5-morpholino-triazolo[4,5-d]pyrimidin-7-one]
